Data on 21 molecules can be found in BindingDB's records for PubMed 3011801 (University of Oulu, 1986).

This assay concerns the target T1, Prolyl 4-hydroxylase subunit alpha-1 (Gallus gallus, UniProt P16924).
T1 sequence (P16924 whole entry): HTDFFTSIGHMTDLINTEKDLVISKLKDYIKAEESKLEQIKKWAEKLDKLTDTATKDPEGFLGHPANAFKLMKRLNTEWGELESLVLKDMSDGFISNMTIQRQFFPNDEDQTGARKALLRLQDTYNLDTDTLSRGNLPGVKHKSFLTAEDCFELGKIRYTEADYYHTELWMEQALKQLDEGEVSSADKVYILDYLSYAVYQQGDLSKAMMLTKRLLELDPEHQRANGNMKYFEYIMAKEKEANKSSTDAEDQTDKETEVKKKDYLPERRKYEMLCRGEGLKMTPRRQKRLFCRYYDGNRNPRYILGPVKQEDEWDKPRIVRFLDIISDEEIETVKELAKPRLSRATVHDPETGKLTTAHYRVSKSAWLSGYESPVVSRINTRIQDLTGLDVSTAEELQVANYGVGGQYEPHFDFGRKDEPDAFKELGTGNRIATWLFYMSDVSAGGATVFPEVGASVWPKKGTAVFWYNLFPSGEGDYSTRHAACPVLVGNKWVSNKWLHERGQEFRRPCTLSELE
The assay is described as follows: Inhibition Assay. An excerpt:
Inhibition assay using procollagen-prolin, 2-oxoglutarate 4-dioxygenase.

Some results are limits rather than exact numbers.

For `O=C(O)c1cccc(O)c1O` [2,3-Dihydroxybenzoate, IV], the affinity, expressed as Ki, was 70 µM.

`O=C(O)c1cccc(O)c1` yielded a Ki of over 20000 µM.

In turn, `O=C(O)C(O)c1ccc(O)c(O)c1` (stereo unspecified) [3,4-Dihydroxymandelate, XVI] came in with a Ki of 9 µM. For `O=C(O)c1ccccc1O` [salicylic acid] the value was 2300 µM; for `O=C(O)c1ccc(O)cc1O` [beta-Resorcylic acid], 530 µM; for `O=C1OC(C(O)CO)C(O)C1O` (stereo unspecified) [5-(1,2-Dihydroxy-ethyl)-3,4-dihydroxy-dihydro-furan-2-one], over 20000 µM. For `Oc1cccc(O)c1` the value was 10200 µM; for `O=C(O)CCc1ccc(O)c(O)c1` [3-(3,4-dihydroxyphenyl)propanoic acid], 13 µM. `O=C(O)c1ccc(O)c(O)c1` [Protocatechuic acid (M1)]: the Ki worked out at 5 µM. With `O=C(O)Cc1ccccc1` [Phenylacetate, XIX], the Ki was over 20000 µM. For `Oc1ccccc1O` [1,2-Dihydroxybenzene, XI] the value was 25 µM. `O=C(O)c1c(O)cccc1O` [2,6-Dihydroxybenzoate, VII] yielded a Ki of 1100 µM. The figure for `O=C(O)c1ccc(O)cc1` [4-Hydroxybenzoate, III] is 3200 µM; for `O=C(O)[C@H](O)c1ccccc1` [(+)-Mandelate, XXI] it is over 20000 µM; for `O=C(O)c1cc(O)cc(O)c1` [3,5-dihydroxybenzoic acid] it is 9000 µM. In turn, `Oc1ccc(O)cc1` showed a Ki of 14000 µM. On to `Oc1cccc(O)c1O`, for which the Ki was 30 µM. For `O=C(O)Cc1ccc(O)c(O)c1` [SMR000326727] the value was 9 µM. As to `O=C(O)/C=C/c1ccc(O)c(O)c1` [3,4-Dihydroxycinnamate, XVII], the affinity corresponds to a Ki of 18 µM.

As for `O=C(O)c1cc(O)c(O)c(O)c1` [Gallic Acid, F], the Ki is 30 µM. For `O=C(O)c1cc(O)ccc1O` [2,5-Dihydroxybenzoate, VI] the value was 1400 µM.
